Source: US20230233492A1, “PHARMACEUTICAL COMBINATION COMPRISING A BRAIN AMINOPEPTIDASE A INHIBITOR, A DIURETIC AND A BLOCKER OF THE SYSTEMIC RENIN-ANGIOTENSIN SYSTEM” (QUANTUM GENOMICS, priority 2020, published 2023)

Tests used:
[1] = system: conscious hypertensive DOCA-salt rats; experiment: Acute oral administration: MABP and HR recording in conscious freely moving DOCA-salt rats; type: in vivo, rat; details: single oral administration
Procedure: Male deoxycorticosterone acetate (DOCA)-salt rats weighing 250 to 350 g were purchased from Charles River Laboratories (L'Arbresle, France). Animals were randomly assigned in each group with allocation concealment, and blinding procedures were used with coding systemAnimal care and surgical procedures were performed according to the Directive 2010/63/EU. The project was submitted to the appropriate ethics committee and authorization was obtained: 30 CEEA No 59, reference number 01962.01. Animals were kept under artificial light (12 h light/12 h dark cycle) with ad libitum access to a standard diet and saline water (0.9% NaCl, 0.2% KCl).
Male DOCA-salt rats were anesthetized with 3% isoflurane (Iso-Vet®, Piramal, UK) for induction and 1.5-2% isoflurane for maintenance. A catheter (0.011″X.024″X.0065″) was inserted into the right femoral artery to monitor mean arterial blood pressure (MABP) and heart rate (HR). The catheters were tunneled subcutaneously to exit from the neck. Animals were allowed to recover from surgery for at least 48 h before MABP recording. Baseline MABP was recorded before drug administration during 30 minutes to 1 hour. One hour after the start of BP recording, firibastat (30 mg/kg), enalapril (5 or 10 mg/kg) and HCTZ (5 or 10 mg/kg) alone or in combination at different doses were administered to the conscious unrestrained rats by oral route. After compound administration, BP was monitored for 6 hours. MABP was calculated with the […] system (Phymep, Paris, France), consisting of a MatLab hardware unit and CHART software, running on a Macintosh computer. MABP and HR measurements were calculated by the BP signal.

hypertensive patients = details: monotherapy; mild to moderate hypertensive patients and diverse high-risk hypertensive population; cited from earlier work
[2] = system: conscious hypertensive deoxycorticosterone acetate (DOCA) salt rats; details: oral administrations, 15 to 150 mg/kg; cited from earlier work
[3] = system: spontaneously hypertensive rats (SHRs); details: oral administrations, 15 to 150 mg/kg; cited from earlier work

NS(=O)(=O)c1cc2c(cc1Cl)NCNS2(=O)=O [HCTZ, hydrochlorothiazide]
change in BP ([1]; HCTZ 10 mg/kg alone): did not induce any significant change in BP

CCOC(=O)[C@H](CCc1ccccc1)N[C@@H](C)C(=O)N1CCC[C@H]1C(=O)O [enalapril]
change in BP ([1]; enalapril 10 mg/kg alone): did not induce any significant change in BP

N[C@@H](CCS(=O)(=O)O)CSSC[C@@H](N)CCS(=O)(=O)O [firibastat, (3S,3S′) 4,4′-disulfanediylbis(3-aminobutane 1-sulfonic acid)]
effect on BP (hypertensive patients): lower BP | effect on BP [2]: dose-dependent decrease in BP | effect on BP [3]: dose-dependent decrease in BP | decrease in BP (change in MABP from baseline) ([1]; firibastat 30 mg/kg alone, 5 h post-dosing): −35.4±5.2 mmHg
